Measured values published in patent US10772893B2, “2-(morpholin-4-yl)-1,7-naphthyridines” (BAYER PHARMA AKTIENGESELLSCHAFT, priority 2014, dated 2020).

Each compound was assayed on HeLa cells (assay: Proliferation assay, crystal violet staining). Conditions: Homo sapiens, 96 h, read-out: Inhibition of HeLa cell proliferation, HeLa cells, 4 days incubation.
Description: After 24 hours, the cells of one plate (zero plate) were dyed with crystal violet (see below), whereas the medium of the other plates was replaced with fresh culture medium (200 μl) to which the test substances were added in various concentrations (0 μM, and also in the range of 0.001-10 μM; the final concentration of the solvent dimethyl sulphoxide was 0.1 or 0.5%). The cells were incubated for 4 days in the presence of the test substances. […] After washing the fixed cells three times with water, the plates were dried at room temperature. The cells were stained by adding 100 μl/measurement point of a 0.1% strength crystal violet solution (pH adjusted to pH 3 by adding acetic acid). After washing the cells three times with water, the plates were dried at room temperature. The dye was dissolved by adding 100 μl/measurement point of a 10% strength acetic acid solution. […] The percentage change in cell growth was calculated by normalizing the measured values to the absorbance values of the zero plate (=0%) and the absorbance of the untreated (0 W) cells (=100%). The IC50 values were determined by means of a four parameter fit.

SMILES | IC50 [nM]
Cc1nn(C)c(C)c1-c1cc(N2CCOCC2)nc2c(-c3ccn[nH]3)nccc12 [Example 273, 2-(morpholin-4-yl)-8-(1H-pyrazol-5-yl)-4-(1,3,5-trimethyl-1H-pyrazol-4-yl)-1,7-naphthyridine] | 999
COCCS(C)(=O)=Nc1cc(N2CCOC[C@H]2C)nc2c(-c3ccn[nH]3)nccc12 (stereo partly drawn) [Example 274, 4-{[(2-methoxyethyl)(methyl)oxido-λ^6-sulfanylidene]amino}-2-[(3R)-3-methylmorpholin-4-yl]-8-(1H-pyrazol-5-yl)-1,7-naphthyridine] | 610
C[C@@H]1COCCN1c1cc(N=S(C)(=O)c2ccc(Br)cc2)c2ccnc(-c3ccn[nH]3)c2n1 (stereo partly drawn) [Example 277, 4-{[(4-bromophenyl)(methyl)oxido-λ^6-sulfanylidene]amino}-2-[(3R)-3-methylmorpholin-4-yl]-8-(1H-pyrazol-5-yl)-1,7-naphthyridine] | 401
C[C@@H]1COCCN1c1cc(N=S(C)(=O)C(C)(C)C)c2ccnc(-c3ccn[nH]3)c2n1 (stereo partly drawn) [Example 278, 4-{[tert-butyl(methyl)oxido-λ^6-sulfanylidene]amino}-2-[(3R)-3-methylmorpholin-4-yl]-8-(1H-pyrazol-5-yl]-1,7-naphthyridine] | 168
O=S1(=Nc2cc(N3CCOCC3)nc3c(-c4ccn[nH]4)nccc23)CCCCC1 [Example 280, N-[2-(morpholin-4-yl)-8-(1H-pyrazol-5-yl)-1,7-naphthyridin-4-yl]hexahydro-1λ^4-thiopyran-1-imine 1-oxide] | 417
CC(C)C(C)(O)c1cc(N2CCOC[C@H]2C)nc2c(-c3ccn[nH]3)nccc12 (stereo partly drawn) [Example 281, 3-methyl-2-{2-[(3R)-3-methylmorpholin-4-yl]-8-(1H-pyrazol-5-yl)-1,7-naphthyridin-4-yl}butan-2-ol] | 259
C[C@@H]1COCCN1c1cc(C(C)(O)C2CCOCC2)c2ccnc(-c3ccn[nH]3)c2n1 (stereo partly drawn) [Example 282, 1-{2-[(3R)-3-methylmorpholin-4-yl]-8-(1H-pyrazol-5-yl)-1,7-naphthyridin-4-yl}-1-(tetrahydro-2H-pyran-4-yl)ethanol] | 1180
C[C@@H]1COCCN1c1cc(C(C)(O)C(C)(C)C)c2ccnc(-c3ccn[nH]3)c2n1 (stereo partly drawn) [Example 283, 3,3-dimethyl-2-{2-[(3R)-3-methylmorpholin-4-yl]-8-(1H-pyrazol-5-yl)-1,7-naphthyridin-4-yl}butan-2-ol] | 146
CCCCC(C)(O)c1cc(N2CCOC[C@H]2C)nc2c(-c3ccn[nH]3)nccc12 (stereo partly drawn) [Example 284, 2-{2-[(3R)-3-methylmorpholin-4-yl]-8-(1H-pyrazol-5-yl)-1,7-naphthyridin-4-yl}hexan-2-ol] | 852
O=C(NC1CC1)c1ccc(-c2cc(N3CCOCC3)nc3c(-c4ccn[nH]4)nccc23)cc1 [Example 291, N-cyclopropyl-4-[2-(morpholin-4-yl)-8-(1H-pyrazol-5-yl)-1,7-naphthyridin-4-yl]benzamide] | 1520
Cc1ccncc1-c1cc(N2CCOCC2)nc2c(-c3ccn[nH]3)nccc12 [Example 292, 4-(4-methylpyridin-3-yl)-2-(morpholin-4-yl)-8-(1H-pyrazol-5-yl)-1,7-naphthyridine] | 2640
c1cc(-c2cc(N3CCOCC3)nc3c(-c4ccn[nH]4)nccc23)c2cc[nH]c2c1 [Example 294, 4-(1H-indol-4-yl)-2-(morpholin-4-yl)-8-(1H-pyrazol-5-yl)-1,7-naphthyridine] | 2450
NC(=O)c1ccc(-c2cc(N3CCOCC3)nc3c(-c4ccn[nH]4)nccc23)cc1 [Example 296, 4-[2-(morpholin-4-yl)-8-(1H-pyrazol-5-yl)-1,7-naphthyridin-4-yl]benzamide] | 2740
Fc1cccc(-c2cc(N3CCOCC3)nc3c(-c4ccn[nH]4)nccc23)c1 [Example 298, 4-(3-fluorophenyl)-2-(morpholin-4-yl)-8-(1H-pyrazol-5-yl)-1,7-naphthyridine] | 2440
Clc1ccc(-c2cc(N3CCOCC3)nc3c(-c4ccn[nH]4)nccc23)s1 [Example 299, 4-(5-chlorothiophen-2-yl)-2-(morpholin-4-yl)-8-(1H-pyrazol-5-yl)-1,7-naphthyridine] | > 3000
FC(F)(F)c1ccccc1-c1cc(N2CCOCC2)nc2c(-c3ccn[nH]3)nccc12 [Example 301, 2-(morpholin-4-yl)-8-(1H-pyrazol-5-yl)-4-[2-(trifluoromethyl)phenyl]-1,7-naphthyridine] | 2820
FC(F)(F)c1cccc(-c2cc(N3CCOCC3)nc3c(-c4ccn[nH]4)nccc23)c1 [Example 303, 2-(morpholin-4-yl)-8-(1H-pyrazol-5-yl)-4-[3-(trifluoromethyl)phenyl]-1,7-naphthyridine] | > 3000
Clc1cccc(-c2cc(N3CCOCC3)nc3c(-c4ccn[nH]4)nccc23)c1 [Example 304, 4-(3-chlorophenyl)-2-(morpholin-4-yl)-8-(1H-pyrazol-5-yl)-1,7-naphthyridine] | > 3000
COc1cccc(-c2cc(N3CCOCC3)nc3c(-c4ccn[nH]4)nccc23)c1 [Example 306, 4-(3-methoxyphenyl)-2-(morpholin-4-yl)-8-(1H-pyrazol-5-yl)-1,7-naphthyridine] | > 3000
c1coc(Cc2cc(N3CCOCC3)nc3c(-c4ccn[nH]4)nccc23)c1 [Example 310, 4-(furan-2-ylmethyl)-2-(morpholin-4-yl)-8-(1H-pyrazol-5-yl)-1,7-naphthyridine] | > 3000
Cc1cccc(-c2cc(N3CCOCC3)nc3c(-c4ccn[nH]4)nccc23)c1C [Example 312, 4-(2,3-dimethylphenyl)-2-(morpholin-4-yl)-8-(1H-pyrazol-5-yl)-1,7-naphthyridine] | > 3000
OCc1cccc(-c2cc(N3CCOCC3)nc3c(-c4ccn[nH]4)nccc23)c1 [Example 313, {3-[2-(morpholin-4-yl)-8-(1H-pyrazol-5-yl)-1,7-naphthyridin-4-yl]phenyl}methanol] | 2540
Fc1ccc(-c2cc(N3CCOCC3)nc3c(-c4ccn[nH]4)nccc23)cc1 [Example 314, 4-(4-fluorophenyl)-2-(morpholin-4-yl)-8-(1H-pyrazol-5-yl)-1,7-naphthyridine] | > 3000
Clc1ccc(-c2cc(N3CCOCC3)nc3c(-c4ccn[nH]4)nccc23)cc1 [Example 316, 4-(4-chlorophenyl)-2-(morpholin-4-yl)-8-(1H-pyrazol-5-yl)-1,7-naphthyridine] | > 3000
COc1cccc(-c2cc(N3CCOCC3)nc3c(-c4ccn[nH]4)nccc23)c1F [Example 317, 4-(2-fluoro-3-methoxyphenyl)-2-(morpholin-4-yl)-8-(1H-pyrazol-5-yl)-1,7-naphthyridine] | 2980
Cc1ccccc1-c1cc(N2CCOCC2)nc2c(-c3ccn[nH]3)nccc12 [Example 318, 4-(2-methylphenyl)-2-(morpholin-4-yl)-8-(1H-pyrazol-5-yl)-1,7-naphthyridine] | 2000
CN(C)c1cccc(-c2cc(N3CCOCC3)nc3c(-c4ccn[nH]4)nccc23)c1 [Example 320, N,N-dimethyl-3-[2-(morpholin-4-yl)-8-(1H-pyrazol-5-yl)-1,7-naphthyridin-4-yl]aniline] | > 3000
CN(C)c1ccccc1-c1cc(N2CCOCC2)nc2c(-c3ccn[nH]3)nccc12 [Example 321, N,N-dimethyl-2-[2-(morpholin-4-yl)-8-(1H-pyrazol-5-yl)-1,7-naphthyridin-4-yl]aniline] | > 3000
